Patent EP2605769B1, “BENZOQUINONE DERIVATIVES FOR THE TREATMENT OF MITCHONDRIAL EYE DISEASES” (Santhera Pharmaceuticals (Schweiz) AG, priority 2010, dated 2012)

How the values were obtained:
[1] = system: HepG2 hepatoblastoma cell line; assay: Cytotoxicity assay (WST-1); type: cell-based, human; conditions: Hep-G2 cells, 24 hours exposure
Text: This assay investigates cytotoxicity which is defined as the cell-killing property of a chemical compound, independent from the mechanisms of cell death. The HepG2 hepatoblastoma cell line is one of the most common human cell lines for hepatotoxicity studies. […] This assay measures metabolic activity of living cells using the WST-1 cell proliferation reagent (Roche Diagnostics). The tetrazolium salt WST-1 is cleaved to water soluble formazan by cellular enzymes. An expansion in the number of viable cells results in an increase in the overall activity of mitochondrial dehydrogenases in the sample. This augmentation in enzyme activity leads to an increase in the amount of formazan dye formed, which directly correlates to the number of metabolically active cells in the culture. The formazan dye produced by metabolically active cells is directly quantified in a scanning multiwell spectrophotometer by measuring the absorbance of the formazan dye solution between 420 and 480 nm. Healthy HepG2 cells, when maintained in culture, continuously divide and multiply over time. A toxic chemical, regardless of site and mechanism of action, will interfere with this process and result in the reduction of the growth rate reflected in the cell number.
Experimental Procedure: Hep-G2 cells are seeded into a 96-well microplate and maintained in culture for 24 hours. They are then exposed to the test compound over a range of eight concentrations. After 24 hours exposure, the cells are incubated in presence of reagent WST-1 for 30 min before measuring the absorbance of the formazan dye formed. Cytotoxicity is expressed as a concentration dependent reduction of the conversion formazan dye formation due to a decrease in cell proliferation as compared to untreated cells. The TC50 (Toxic Concentration 50%), is defined as the concentration of tested compound required to reduce the cellular viability by 50% relative to the control culture. The lower the TC50 value, the higher is the cytotoxic potential of the test compound. […]

[2] = system: Primary human fibroblasts C4 (GM04545, Coriell); assay: Lipid peroxidation assay (BODIPY 581/591-C11); type: cell-based; conditions: 10 µM test compound, 72 hours
Text: Lipid peroxidation is a well defined mechanism of cellular damage in both animals and plants that occurs during aging and in some disease states. This process proceeds by a free radical chain reaction mechanism. […] If not terminated fast enough, lipid peroxidation damages cellular membranes, affect membrane fluidity and also mitochondrial function. In addition, end products of lipid peroxidation may be mutagenic and carcinogenic. For instance, the reactive end product of lipid peroxidation, malondialdehyde, directly causes DNA damage. Experimental Procedure: […] BODIPY 581/591-C11 can be used to measure antioxidant activity in lipid environments by exploiting its loss of fluorescence upon interaction with peroxyl radicals. […] After that, 0.1 ml freshly prepared dye solution (HBSS, containing BODIPY dye 1:1000 from stock solution) was added and cells were returned to the incubator for 30 min. After 2 brief washes with 0.1 ml warmed PBS fluorescence was measured in 50 µl PBS. Fluorescence for 4 individual areas per well were individually quantified at two wavelengths (Ex1: 490, Em1: 600; Ex2: 490, Em2: 530, bandwith 10nm, 50 flashes, 400Hz frequency, 20 µs integration time).

Complex II-III = assay: Measurement of mitochondrial complex II activity (SURFE2R CII-CIII assay); type: biochemical; conditions: test compound ~4 µM, peak current normalized
Text: Complex II (CII) is an enzyme complex bound to the matrix face of the inner mitochondrial membranes. It consists of four subunits with several different enzymatic activities. One of these is the citric acid-cycle enzyme succinate dehydrogenase, which catalyzes the conversion from succinate to fumarate. In this reaction electrons are transferred from succinate to the prosthetic group FAD thus generating FADH2 ([…] 2000). These electrons are then transferred from the reduced FADH2 to ubiquinone, from ubiquinone to the reaction centers of complex III (CIII), and finally to the cytochrome c. During this electron translocation process, complex III pumps four protons from matrix to the intermembrane space. These proton fluxes can be detected as electrical currents on SSM-based SURFE2R sensors (http://www.sd-heidelberg.de/index.html). In the SURFE2R CII-CIII assay, both, CII and CIII are activated simultaneously by first equilibrating the sensors with succinate and then activating the CII-CIII reaction by oxidized cytochrome c. The resulting efflux of protons out from the membrane compartment induces negative currents, which are sensitive to the CII and CIII inhibitors malonate and antimycin A, respectively. Experimental Procedure: SURFE2R SSM sensors were coated with inner mitochondrial membranes according to the standard protocols. Briefly, sensors were filled with 50 μL of SensorPrep A solution and incubated for 10-15 min. […] The biosensors were thawed immediately before the experiment and measured with the SURFE2R Workstation 50 or 500 devices. […] For the activity of CII-III, the peak current (current amplitude) was evaluated. […] Afterwards, a test compound (~4 μM) was supplied to the non-activating and the activating solutions and the CII-III activity was recorded for further ~50 min (110 min in total). […] For those test compounds, which activated CII-III by more than 30% at time 80 to 110 min, the CII-CIII activity was recorded for additional ~50 min (up to 160 min in total).

## COC1=C(OC)C(=O)C(CCCCCCCCCCO)=C(C)C1=O [Compound IA, Idebenone]
[1]
  TC50: 100 µM
[2]
  Lipid peroxidation: 98%
Complex II-III
  Complex II-III activity: 102%

## COC1=C(OC)C(=O)C(CCCCCCCCCC(C)(C)O)=C(C)C1=O [Compound IC]
[2]
  Lipid peroxidation: 92%
Complex II-III
  Complex II-III activity: 97%

## CCCCCCCCCCCC1=C(O)C(=O)C=C(O)C1=O [Compound IE, Embelin]
[1]
  TC50: 100 µM
[2]
  Lipid peroxidation: 110%
Complex II-III
  Complex II-III activity: 110%
